The results in this text go back to patent US5034391A, “Piperazinylalkyl-3(2H)-pyridazinones and the use thereof as agents lowering blood pressure” (CL Pharma Aktiengesellschaft, priority 1988, dated 1991).

The target in this test is T1, alpha1 adrenoceptors (Rattus norvegicus, UniProt P15823).
T1 construct: from tissue; host or cells: rat cardiac membranes
T1 sequence (P15823 1-515): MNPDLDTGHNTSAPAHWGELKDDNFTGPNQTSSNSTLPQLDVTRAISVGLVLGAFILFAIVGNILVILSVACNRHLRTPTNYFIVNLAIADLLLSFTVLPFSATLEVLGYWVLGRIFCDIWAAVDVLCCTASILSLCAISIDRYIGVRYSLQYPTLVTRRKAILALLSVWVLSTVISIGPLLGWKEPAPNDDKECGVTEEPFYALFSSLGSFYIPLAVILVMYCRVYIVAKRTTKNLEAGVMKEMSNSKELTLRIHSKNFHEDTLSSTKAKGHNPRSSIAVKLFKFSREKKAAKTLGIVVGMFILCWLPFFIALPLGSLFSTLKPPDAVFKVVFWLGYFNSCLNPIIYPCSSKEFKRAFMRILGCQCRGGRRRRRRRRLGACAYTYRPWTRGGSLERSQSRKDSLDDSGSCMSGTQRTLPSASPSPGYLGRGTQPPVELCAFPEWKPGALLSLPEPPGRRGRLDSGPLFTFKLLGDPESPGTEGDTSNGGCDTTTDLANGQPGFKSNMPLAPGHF
Put plainly: Affinity for alpha1 adrenoceptors: displacement of tritiated prazosin on rat cardiac membranes. It is filed as binding. Conditions: Ki from IC50 by Cheng and Prusoff, read-out: Inhibition constants at alpha-1-adrenoceptor (Ki). On the procedure: The affinity of compounds of the general formula I for alpha1 adrenoceptors was established using the method described by R. S. Williams, D. F. Dukes and […] in J. Cardiovasc. Pharmacol. 3, 522-531 (1981). In this method the competitive displacement of tritiated prazosin (2-(4-(2-furoyl)-1-piperazinyl)-4-amino-6,7-dimethoxy-quinazoline) on rat-cardiac membranes by the test substances is measured, and the IC50 (50% inhibition concentration) is determined as that concentration which brings about a 50% inhibition of the specific binding of tritiated prazosin to the alpha1 adrenoceptors in rat cardiac membranes.
The concentration-independent inhibitor constants K1 -alpha1 were determined from the IC50 values as stated by Y. Cheng and H. W.Prusoff in Biochem. Pharmacol. 22, 3099-3108 (1973).

Values joined by “and” are separate entries in the source; they are usually repeats but may differ in a detail not shown here. Equal entries are not always repeated.

In general, Ki refers to a dissociation constant, usually derived from enzyme kinetics or from competition with a known ligand. On to `CCOc1ccccc1N1CCN(CCNc2cnn(C)c(=O)c2)CC1` [2-Methyl-5-((2-(4-(2-ethoxyphenyl)piperazinyl-1)ethyl)amino)-3(2H)-pyridazinone], for which the Ki is 103 nM.
The same measure for `CCOc1cc(C)ccc1N1CCN(CCCNc2cnn(C)c(=O)c2Cl)CC1` [2-Methyl-4-chloro-5-((3-(4-(2-ethoxy-4-methylphenyl)piperazinyl-1)propyl)yamino)-3(2H)-pyridazinone]: 3.78 nM; for `COc1ccccc1N1CCN(CCCNc2ccn[nH]c2=O)CC1` [4-((3-(4-(2-Methoxyphenyl)piperazinyl-1)propyl)amino) -3(2H)-pyridazinone]: 26.1 nM; for `Cn1nccc(NCCCN2CCN(c3ccccc3F)CC2)c1=O` [2-Methyl-4-((3-(4-(2-fluorophenyl)piperazinyl-1)propyl)amino)-3(2H)-pyridazinone]: 30.2 nM.
On to `Cn1ncc(NCCN2CCN(c3ccccc3OCc3ccccc3)CC2)c(Cl)c1=O` [2-Methyl-4-chloro-5-((2-(4-(2-benzyloxyphenyl)piperazinyl-1)ethyl)amino)-3(2H)-pyridazinone], for which the Ki was determined as 2 nM.
The same measure for `COc1ccccc1N1CCN(CCNc2ccnn(C)c2=O)CC1` [2-Methyl-4-((2-(4-(2-methoxyphenyl)piperazinyl-1)ethyl)amino)-3(2H)-pyridazinone]: 15.7 nM.
For the compound `COc1ccccc1N1CCN(CCNc2ccnn(C(C)(C)C)c2=O)CC1` [2-t-Butyl-4-((2-(4-(2-methoxyphenyl)piperazinyl-1)ethyl)amino)-3(2H)-pyridazinone], the Ki was determined as 60.8 nM.
Consider `COc1ccccc1N1CCN(CCNc2c(Cl)cnn(CCN(C)C)c2=O)CC1` [2-(2-Dimethylaminoethyl)-5-chloro-4-((2-(4-(2-methoxyphenyl)piperazinyl-1)ethyl)amino)-3(2H)-pyridazinone], for which the Ki was 15.8 nM.
The value for `Cn1nccc(NCCN2CCN(c3ccccc3F)CC2)c1=O` [2-Methyl-4-((2-(4-(2-fluorophenyl)piperazinyl-1)ethyl)amino) -3(2H)-pyridazinone] was 21.4 nM.
The value for `CCOc1cc(C)ccc1N1CCN(CCCNc2ccnn(C)c2=O)CC1` [2-Methyl-4-((3-(4-(2-ethoxy-4-methylphenyl)piperazinyl-1)propyl)amino)-3(2H)-pyridazinone] was 13.6 nM; that for `CCOc1ccccc1N1CCN(CCNc2ccnn(C)c2=O)CC1` [2-Methyl-4-((2-(4-(2-ethoxyphenyl)piperazinyl-1)ethyl)amino)-3(2H)-pyridazinone] was 13.6 nM; that for `CCOc1ccccc1N1CCN(CCCNc2cc(Cl)nn(C)c2=O)CC1` [2-Methyl-6-chloro-(3-(4-(4-(2-ethoxyphenyl)piperazinyl-1)propyl)amino)-3(2H)-pyridazinone] was 6.5 nM.
The value for `COc1ccccc1N1CCN(CCCCNc2cc(Cl)n[nH]c2=O)CC1` [6-Chloro-4-((4-(4-(2-methoxyphenyl)-1-piperazinyl)butyl)amino)-3(2H)-pyridazinone] was 3.34 nM; that for `COc1ccccc1N1CCN(CCCCNc2cnn(C)c(=O)c2)CC1` [2-Methyl-5-((4-(4-(2-methoxyphenyl)piperazinyl-1)butyl)amino)-3(2H)-pyridazinone] was 5.38 nM.
“2-Methyl-4-((2-(4-(2-fluorophenyl)piperazinyl-1)ethyl) amino)-3(2H)-pyridazinone”: the Ki worked out at 89.4 nM.
The value for `Cc1ccc(N2CCN(CCNc3cnn(C)c(=O)c3Cl)CC2)c(O)c1` [2-Methyl-4-chloro-5-((4-(2-hydroxy-4-methylphenyl)piperazinyl-1)ethyl)amino)-3(2H)-pyridazinone] was 20.8 nM; that for `COc1ccccc1N1CCN(CCNc2cnn(-c3ccccc3)c(=O)c2)CC1` [2-Phenyl-5-((2-(4-(2-methoxyphenyl)piperazinyl-1)ethyl)amino)-3(2H)-pyridazinone] was 61.6 nM; that for `Cc1ccccc1N1CCN(CCNc2cnn(C)c(=O)c2Cl)CC1` [2-Methyl-4-chloro-5-((2-(4-(2-methylphenyl)piperazinyl-1)ethyl)amino)-3(2H)-pyridazinone] was 6.27 nM.
The same measure for `COc1ccccc1N1CCN(CCNc2ccn[nH]c2=O)CC1` [4-((2-(4-(2-Methoxyphenyl)piperazinyl-1)ethyl)amino)-3(2H)-pyridazinone]: 42.2 nM.
As to `Cc1ccccc1N1CCN(CCCNc2cnn(C)c(=O)c2)CC1` [2-Methyl-4-((3-(4-(2-methylphenyl)piperazinyl-1)propyl)amino)-3(2H)-pyridazinone], the Ki is 49.3 nM.
The same measure for `Cc1ccc(N2CCN(CCCNc3c(Cl)cnn(C)c3=O)CC2)c(O)c1` [2-Methyl-5-chloro-4-((3-(4-(2-hydroxy-4-methylphenyl)piperazinyl-1)propyl)amino)-3(2H)-pyridazinone]: 5.34 nM.
With `Cc1ccc(N2CCN(CCCNc3ccnn(C)c3=O)CC2)c(O)c1` [2-Methyl-4-((3-(4-(2-hydroxy-4-methylphenyl)piperazinyl-1)propyl)amino)-3(2H)-pyridazinone], the Ki worked out at 20.9 nM.
The value for `CCOc1cc(C)ccc1N1CCN(CCCNc2c(Cl)cnn(C)c2=O)CC1` [2-Methyl-5-chloro-4-((3-(4-(2-ethoxy-4-methylphenyl)piperazinyl-1)propyl)amino)-3(2H)-pyridazinone] was 4.99 nM; that for `Cn1ncc(NCCN2CCN(c3ccccc3O)CC2)c(Cl)c1=O` [2-Methyl-4-chloro-5-((2-(4-(2-hydroxyphenyl)piperazinyl-1)ethyl)amino)-3(2H)-pyridazinone] was 15.4 nM.
On to `O=c1[nH]nccc1NCCN1CCN(c2ccccc2O)CC1` [4((2-(4-(2-Hydroxyphenyl)piperazinyl-1)ethyl)amino)-3(2H)-pyridazinone], for which the Ki was 84 nM.
Consider `COc1ccccc1N1CCN(CCNc2c(Cl)cn[nH]c2=O)CC1` [5-Chloro-4-((2-(4-methoxyphenyl)piperazinyl-1)ethyl)amino)-3(2H)-pyridazinone], for which the Ki came out at 2.95 nM.
`COc1ccccc1N1CCN(CCCN(C)c2cnn(C)c(=O)c2Cl)CC1` [2-Methyl-4-chloro-5-(methyl-(3-(4-(2-methoxyphenyl)piperazinyl-1)propyl)amino)-3(2H)-pyridazinone]: the Ki was 3.55 nM.
For the compound `COc1ccccc1N1CCN(CCNc2ccnn(CCN(C)C)c2=O)CC1` [2-(2-Dimethylaminoethyl)-4-((2-(4-(2-methoxyphenyl)piperazinyl-1)ethyl)amino)-3(2H)-pyridazinone], the Ki turned out to be 437 nM.
The same measure for `COc1ccccc1N1CCN(CCCCNc2cnn(C)c(=O)c2Cl)CC1` [2-Methyl-4-chloro-5-((4-(4-(2-methoxyphenyl)-1-piperazinyl)butyl)amino)-3(2H)-pyridazinone]: 6.05 nM; for `COc1ccccc1N1CCN(CCCNc2ccnn(C)c2=O)CC1` [2-Methyl-4-((3-(4-(2-methoxyphenyl)piperazinyl-1)propyl)amino-3(2H)-pyridazinone]: 24.7 nM and 40.5 nM; for `Cn1ncc(NCCCN2CCN(c3ccccc3F)CC2)c(Cl)c1=O` [2-Methyl-4-chloro-5-((3-(4-(2-fluorophenyl)piperazinyl-1)propyl)amino)-3(2H)-pyridazinone]: 32.8 nM.
The value for `CCOc1cc(C)ccc1N1CCN(CCCNc2cnn(C)c(=O)c2)CC1` [1-Methyl-5-((3-(4-(2-ethoxy-4-methylphenyl)piperazinyl-1)propyl)amino)-3(2H)-pyridazinone] was 23.3 nM; that for `Cc1ccc(N2CCN(CCCNc3cnn(C)c(=O)c3Cl)CC2)c(O)c1` [2-Methyl-4-chloro-5-((3-(4-(2-hydroxy-4-methylphenyl)piperazinyl-1)propyl)amino)-3(2H)-pyridazinone] was 4.33 nM.
The value for `Cc1ccccc1N1CCN(CCCNc2cnn(C)c(=O)c2Cl)CC1` [2-Methyl-4-chloro-5-((3-(4-(2-methylphenyl)piperazinyl-1)propyl)amino)-3(2H)-pyridazinone] was 31.4 nM; that for `Cn1ncc(Cl)c(NCCCN2CCN(c3ccccc3F)CC2)c1=O` [2-Methyl-5-chloro-4-((3-(4-(2-fluorophenyl)piperazinyl-1)propyl)amino)-3(2H)-pyridazinone] was 4.89 nM; that for `COc1ccccc1N1CCN(CCCNc2cc(Cl)n[nH]c2=O)CC1` [6-Chloro-4-((3-(4-(2-methoxyphenyl)piperazinyl-1)propyl)amino)-3(2H)-pyridazinone] was 11 nM.
On to `COc1ccccc1N1CCN(CCCN(C)c2c(Cl)cnn(C)c2=O)CC1` [2-Methyl-5-chloro-4-(methyl-(3-(4-(2-methoxyphenyl)piperazinyl-1)propyl)amino)-3(2H)-pyridazinone], for which the Ki was 12.9 nM.
The same measure for `Cc1ccccc1N1CCN(CCCNc2c(Cl)cnn(C)c2=O)CC1` [2-Methyl-5-chloro-4-((3-(4-(2-methylphenyl)piperazinyl-1)piperazinyl-1)propyl)amino)-3(2H)-pyridazinone]: 4.45 nM.
